# Laboratory results: patent US20240091299A1, “TOPICAL COMPOSITIONS FOR ENHANCING A MAN'S SEXUAL RESPONSIVENESS AND PERFORMANCE” (The Hidden Vault LLC, priority 2022, published 2024)
# System: penis of a person
# Experiment: topical application of the compositions (massage oil) to a person's penis, twice daily
# Type: in vivo, human
# Conditions: ingredient as included in the compositions, applied topically to a person's penis as a massage oil
compound,measurement,value
"C=C(C)[C@@H]1CCC(C)=C[C@H]1c1c(O)cc(CCCCC)cc1O [CBD, Cannabidiol]","effect on sexual arousal, performance, libido and penis size",enhances sexual arousal and performance and stamina
